How the values were obtained:
Format in all cases: in vivo
[1] = test system: Two-Spotted Spider Mite (Tetranychus urticae); experiment: Two-spotted spider mite (Tetranychus urticae) spray test on kidney bean; conditions: after 7 days
Method: (§1) Unless not mentioned otherwise, the test solutions were prepared as follows:
(§2) Solvent: 3 parts by weight Dimethylformamide
(§3) Emulsifier: 1 part by weight Polyoxyethylene alkyl phenyl ether
(§4) In order to make an appropriate formulation of an active compound, 1 part by weight of the active compound is mixed with the above mentioned amount of solvent and emulsifier and the mixture is diluted with water to a prescribed concentration. Ammonium salt or ammonium salt and penetration enhancer in a dosage of 1000 ppm are added to the desired concentration if necessary.
50 to 100 adult mites of Tetranychus urticae were inoculated to leaves of kidney bean at two-leaf stage planted in a pot of 6 cm in diameter. After one day, test solution at the appropriate concentration was sprayed thereon in a sufficient amount using a spray gun. After the spraying, the plant pot was placed inside a greenhouse, and after 7 days, the acaricidal activity was calculated. An acaricidal activity of 100% means that all mites were killed, whereas an acaricidal activity of 0% means that no mite was killed.

[2] = test system: Cucurbit Leaf Beetle (Aulacophora femoralis); experiment: Cucurbit leaf beetle (Aulacophora femoralis) cucumber leaf dip test; conditions: after 7 days; for pest or weed control at 20 ppm: Aulacophora, foliar, 168 h, read-out: insecticidal activity
Method: as §1, §2, §3, §4
Leaves of cucumber were immersed in the test solution at the appropriate concentration, and the leaves were dried in air. The leaves were then put in a plastic cup containing sterilized black soil and five Aulacophora femoralis at second instar larvae were released in the cup. The cups were placed in a temperature-controlled chamber at 25° C. After 7 days, the number of dead larvae was counted, and thus the insecticidal activity was calculated. An insecticidal activity of 100% means that all larvae were killed, whereas an insecticidal activity of 0% means that no larva was killed.

[3] = test system: Larvae of Spodoptera litura; experiment: Larvae of Spodoptera litura, method using artificial feeds; conditions: artificial feed, after 7 days
Method: as §1, §2, §3, §4
[A Method Using Artificial Feeds (Trade Name: Insecta LFM, Manufactured by Nosan Corporation)]
Powdery artificial feeds (2.3 g) were added to a plastic cup (diameter: 7.5 cm, height: 4 cm) to achieve a certain thickness. Water-diluted liquid (5 ml) of the active compound prepared above having predetermined concentration was evenly poured thereto and allowed to stand until the feeds were solidified. Five of the 3rd-instar larvae of Spodoptera litura were released in respective cups, and covered. The cups were put in a temperature controlled room at 25° C. and humidity of 50 to 60%, and the number of dead larvae after 7 days was determined to calculate the pesticidal ratio. 100% pesticidal ratio means death of all the larvae, while 0% pesticidal ratio means no dead larvae.

[4] = active compound concentration 100 ppm
[5] = active compound concentration 20 ppm
[6] = active compound concentration 4 ppm

| SMILES | insecticidal activity [2, 5] | insecticidal activity (pesticidal ratio) [3, 5] | insecticidal activity (pesticidal ratio) [3, 6] | further results |
| --- | --- | --- | --- | --- |
| CC(C)(C)OC(=O)NCc1ccc(N2CCC(c3cc(Cl)c(Cl)c(Cl)c3)(C(F)(F)F)C2O)cc1Cl (mixture of isomers) [A1-68] |  |  |  | acaricidal activity [1, 4]: 100% |
| CC(C)(C)OC(=O)NCc1ccc(N2CCC(c3cc(C(F)(F)F)cc(C(F)(F)F)c3)(C(F)(F)F)C2O)cc1C(F)(F)F (mixture of isomers) [A1-72] |  |  |  | insecticidal activity [2, 4]: 100%; insecticidal activity (pesticidal ratio) [3, 4]: 100% |
| CCC(=O)NCc1ccc(N2CCC(c3cc(Cl)cc(Cl)c3)(C(F)(F)F)C2O)cc1CC (mixture of isomers) [A1-85] |  |  |  | acaricidal activity [1, 5]: 90% |
| CC(=O)NCc1ccc(N2CCC(c3cc(C(F)(F)F)cc(C(F)(F)F)c3)(C(F)(F)F)C2O)cc1C (mixture of isomers) [A1-183] | 100% | 100% |  |  |
| CCC(=O)NCc1ccc(N2CCC(c3cc(Br)cc(Br)c3)(C(F)(F)F)C2O)nc1C(F)(F)F (mixture of isomers) [A3-178] | 100% | 100% |  |  |
| O=C(NCc1ccc(N2CCC(c3cc(Br)cc(Br)c3)(C(F)(F)F)C2O)nc1C(F)(F)F)C1CC1 (mixture of isomers) [A3-181] | 100% | 100% |  |  |
| CC(=O)NCc1ccc(N2CCC(c3cccc(C(F)(F)F)c3)(C(F)(F)F)C2O)nc1C(F)(F)F (racemic) [A3-221] | 100% |  |  |  |
| CC(=O)NCc1ccc(N2CCC(c3cc(Cl)cc(Cl)c3)(C(F)(F)F)C2O)cc1C(F)(F)F (stereo not drawn) [A1-34] | 100% | 100% |  |  |
| CC(C)(C)OC(=O)NCc1ccc(N2CCC(c3cc(C(F)(F)F)cc(C(F)(F)F)c3)(C(F)(F)F)C2O)cc1Cl (stereo not drawn) [A1-69, tert-butyl (4-{3-[3,5-bis(trifluoromethyl)phenyl]-2-hydroxy-3-(trifluoro-methyl)pyrrolidin-1-yl}-2-chlorobenzyl)carbamate] |  |  |  | pest or weed control at 20 ppm [2, 5]: 100% |
| CCC(=O)NCc1ccc(N2CCC(c3cc(F)cc(Cl)c3)(C(F)(F)F)C2O)cc1C(F)(F)F (stereo not drawn) [A1-239] |  |  |  | acaricidal activity [1, 5]: 100% |
| CCC(=O)NCc1ccc(N2CCC(c3cc(Cl)cc(Cl)c3)(C(F)(F)F)C2O)cc1 (stereo not drawn) [A1-373] | 100% | 100% |  |  |
| CCC(=O)NCc1ccc(N2CCC(c3cc(C(F)(F)F)cc(C(F)(F)F)c3)(C(F)(F)F)C2O)cc1 (stereo not drawn) [A1-395] | 100% | 100% |  |  |
| CC(=O)NCc1cc(F)c(N2CCC(c3cc(Cl)c(Cl)c(Cl)c3)(C(F)(F)F)C2O)cc1F (stereo not drawn) [A1-453] |  |  | 80% |  |
| O=C(NCc1cc(F)c(N2CCC(c3cc(Cl)c(Cl)c(Cl)c3)(C(F)(F)F)C2O)cc1F)C1CC1 (stereo not drawn) [A1-457] |  |  | 100% | insecticidal activity [2, 6]: 100% |
| O=C(NCc1cc(F)c(N2CCC(c3cc(Cl)c(Cl)c(Cl)c3)(C(F)(F)F)C2O)cc1Cl)C1CC1 (stereo not drawn) [A1-481] |  |  | 100% | insecticidal activity [2, 6]: 100% |
| Cc1c(CNC(=O)C2CC2)ccc(N2CCC(c3cc(Cl)c(Cl)c(Cl)c3)(C(F)(F)F)C2O)c1F (stereo not drawn) [A1-493] |  |  | 100% | insecticidal activity [2, 6]: 100% |
| CCC(=O)NCc1ccc(N2CCC(c3cc(Cl)cc(Cl)c3)(C(F)(F)F)C2O)nc1C(F)(F)F (stereo not drawn) [A3-2] | 100% | 100% |  |  |
| CC(=O)NCc1ccc(N2CCC(c3cc(C(F)(F)F)cc(C(F)(F)F)c3)(C(F)(F)F)C2O)nc1C (stereo not drawn) [A3-122] |  | 100% | 100% |  |
| Cc1nc(N2CCC(c3cc(C(F)(F)F)cc(C(F)(F)F)c3)(C(F)(F)F)C2O)ccc1CNC(=O)C1CC1 (stereo not drawn) [A3-126] | 100% | 100% |  |  |

| SMILES | insecticidal activity [2, 5] | insecticidal activity (pesticidal ratio) [3, 5] | insecticidal activity (pesticidal ratio) [3, 6] | further results |
| --- | --- | --- | --- | --- |
| Cc1nc(N2CCC(c3cc(C(F)(F)F)cc(C(F)(F)F)c3)(C(F)(F)F)C2O)ccc1CNC(=O)CS(C)(=O)=O (stereo not drawn) [A3-132] |  | 100% | 100% |  |
| CC(=O)NCc1ccc(N2CCC(c3cc(C(F)(F)F)cc(C(F)(F)F)c3)(C(F)(F)F)C2O)nc1Br (stereo not drawn) [A3-155] | 100% | 100% | 100% | insecticidal activity [2, 6]: 100% |
| CCC(=O)NCc1ccc(N2CCC(c3cc(C(F)(F)F)cc(C(F)(F)F)c3)(C(F)(F)F)C2O)nc1Br (stereo not drawn) [A3-156] | 100% | 100% |  |  |
| CCC(=O)NCc1ccc(N2CCC(c3cc(Cl)c(F)c(Cl)c3F)(C(F)(F)F)C2O)nc1Br (stereo not drawn) [A3-323] |  |  | 100% | insecticidal activity [2, 6]: 100% |
| O=C(NCc1cc(F)c(N2CCC(c3cc(Cl)c(Cl)c(Cl)c3)(C(F)(F)F)C2O)nc1Cl)C1CC1 (stereo not drawn) [A3-370] |  |  | 100% | insecticidal activity [2, 6]: 100% |
| CC(=O)NCc1cc(F)c(N2CCC(c3cc(C(F)(F)F)cc(C(F)(F)F)c3)(C(F)(F)F)C2O)nc1Cl (stereo not drawn) [A3-377] |  |  | 100% | insecticidal activity [2, 6]: 100% |
| C=C(C)N(Cc1ccc(N2CCC(c3cc(Cl)c(Cl)c(Cl)c3)(C(F)(F)F)C2O)nc1C(F)(F)F)C(=O)C1CC1 (stereo not drawn) [A3-424] |  |  | 100% | insecticidal activity [2, 6]: 100% |
| CN(C)CC(=O)NCc1cnc(N2CCC(c3cc(Cl)cc(Cl)c3)(C(F)(F)F)C2O)nc1C(F)(F)F (stereo not drawn) [A4-201] |  |  |  | insecticidal activity (pesticidal ratio) [3, 4]: 100% |
| O=C(NCc1cnc(N2CCC(c3cc(Cl)cc(Cl)c3)(C(F)(F)F)C2O)nc1C(F)(F)F)C1CCCN1 (stereo not drawn) [A4-202] |  |  |  | insecticidal activity (pesticidal ratio) [3, 4]: 100% |
| CC(C)(C)OC(=O)N1CCCC1C(=O)NCc1cnc(N2CCC(c3cc(Cl)cc(Cl)c3)(C(F)(F)F)C2O)nc1C(F)(F)F (stereo not drawn) [A4-203] |  |  |  | insecticidal activity (pesticidal ratio) [3, 4]: 80% |
| O=C(NCc1cnc(N2CCC(c3cc(C(F)(F)F)cc(C(F)(F)F)c3)(C(F)(F)F)C2O)nc1Cl)C1CC1 (stereo not drawn) [A4-252] |  |  | 100% | insecticidal activity [2, 6]: 100% |
| N#CCC(=O)NCc1cnc(N2CCC(c3cc(Cl)cc(Cl)c3)(C(F)(F)F)C2O)nc1C(F)(F)F (stereo not drawn) [A4-435] |  |  |  | acaricidal activity [1, 5]: 100% |
| CCC(=O)NCc1ccc(N2CC(c3cc(C(F)(F)F)cc(C(F)(F)F)c3)(C(F)(F)F)CC2O)nc1C(F)(F)F (stereo not drawn) [A′3-24, N-{[6-{4-[3,5-bis(trifluoromethyl)phenyl]-2-hydroxy-4-(trifluoromethyl)pyrrolidin-1-yl}-2-(trifluoromethyl)pyridin-3-yl]methyl}propanamide] |  |  |  | pest or weed control at 20 ppm [2, 5]: 100%; pest or weed control at 20 ppm ([3]; Spodoptera litura, 168 h, active compound concentration 20 ppm, read-out: insecticidal activity (pesticidal ratio)): 100% |
| CCC(=O)NCc1ccc(N2CCC(c3cc(C(F)(F)F)cc(C(F)(F)F)c3)(C(F)(F)F)C2=O)cc1 (stereo not drawn) [B1-96] | 100% | 100% |  |  |
| CCC(=O)NCc1ccc(N2CC(c3cc(Cl)c(Cl)c(Cl)c3)(C(F)(F)F)CC2=O)nc1C (stereo not drawn) [C1-74] |  | 100% |  |  |
| CCC(=O)NCc1ccc(N2CC(c3cc(Cl)cc(Cl)c3)(C(F)(F)F)CC2=O)nc1C(F)(F)F (stereo not drawn) [C3-2] |  | 100% |  |  |
| O=C(NCc1ccc(N2CC(c3cc(Cl)cc(Cl)c3)(C(F)(F)F)CC2=O)nc1C(F)(F)F)C1CC1 (stereo not drawn) [C3-5] |  | 100% |  |  |
| CCCC(=O)NCc1ccc(N2CCC(c3cc(Cl)c(Cl)c(Cl)c3)(C(F)(F)F)C2O)cc1C(F)(F)F (stereo not drawn) [a1-47] |  | 100% |  |  |
| N#Cc1ccc(N2CCC(c3cc(Cl)c(F)c(Cl)c3F)(C(F)(F)F)C2O)cc1C(F)(F)F (stereo not drawn) [a1-48, 4-[3-(3,5-dichloro-2,4-difluorophenyl)-2-hydroxy-3-(trifluoromethyl)-pyrrolidin-1-yl]-2-(trifluoromethyl)benzonitrile] |  |  |  | pest or weed control at 20 ppm [2, 5]: 100% |
